# According to patent publication US20240254119A1 (THIRD HARMONIC BIO, INC., priority 2022, published 2024):
# Test system: not listed separately
# Experiment: Kinetic solubility assay
# Assay type: physicochemical
# Conditions: kinetic solubility, 50 mM PB (pH 7.4), shaken 24 hours at RT
# Procedure, shortened: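 Concentration in the filtrate was determined by UPLC-UV or HPLC-UV with a standard curve. Before that, compound (10 mM DMSO stock) in 50 mM PB at pH 7.4 was agitated 24 h at room temperature, then PTFE-filtered with centrifugation.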
row,Compound,Solubility (μM)
1,Cc1ccc(-c2noc(C[C@H](C)O)n2)cc1NC(=O)c1cnc2cc(C(F)F)ccn12 [Compound I-82],**** (a solubility less than or equal to 2 μM)
2,Cc1ccc(-c2noc(C[C@@H](C)O)n2)cc1NC(=O)c1cnc2cc(C(F)F)ccn12 [Compound I-83],**** (a solubility less than or equal to 2 μM)
3,COCc1ccn2c(C(=O)Nc3cc(-c4noc(C5CN(C(=O)OC)C5)n4)ccc3C)cnc2c1 [Compound I-140],*** (a solubility greater than 2 μM and less than or equal to 10 μM)
4,Cc1ccc(-c2noc([C@@H]3CCN3S(=O)(=O)c3cn(C)cn3)n2)cc1NC(=O)c1cnc2ccccn12 [Compound I-184],**** (a solubility less than or equal to 2 μM)
5,Cc1ccc(-c2noc([C@@H]3CCN3S(=O)(=O)c3cccnc3)n2)cc1NC(=O)c1cnc2ccccn12 [Compound I-185],**** (a solubility less than or equal to 2 μM)
6,COC(=O)N1CC(c2nc(-c3ccc(C#N)c(NC(=O)c4cnc5ccccn45)c3)no2)C1 [Compound I-212],*** (a solubility greater than 2 μM and less than or equal to 10 μM)
7,Cc1ccc(-c2noc(N3CCC(F)(F)CC3)n2)cc1NC(=O)c1cnc2ccccn12 [Compound I-214],*** (a solubility greater than 2 μM and less than or equal to 10 μM)
8,Cc1nc(-c2ccc(C)c(NC(=O)c3cnc4ccc(N)cn34)c2)no1 [Compound I-219],*** (a solubility greater than 2 μM and less than or equal to 10 μM)

# Target: T1, BCRP (BCRP-MDCKII monolayer) (Homo sapiens, UniProt Q9UNQ0)
# T1 construct: host or cells: MDCKII (canine kidney) cells
# T1 sequence (Q9UNQ0 1-655): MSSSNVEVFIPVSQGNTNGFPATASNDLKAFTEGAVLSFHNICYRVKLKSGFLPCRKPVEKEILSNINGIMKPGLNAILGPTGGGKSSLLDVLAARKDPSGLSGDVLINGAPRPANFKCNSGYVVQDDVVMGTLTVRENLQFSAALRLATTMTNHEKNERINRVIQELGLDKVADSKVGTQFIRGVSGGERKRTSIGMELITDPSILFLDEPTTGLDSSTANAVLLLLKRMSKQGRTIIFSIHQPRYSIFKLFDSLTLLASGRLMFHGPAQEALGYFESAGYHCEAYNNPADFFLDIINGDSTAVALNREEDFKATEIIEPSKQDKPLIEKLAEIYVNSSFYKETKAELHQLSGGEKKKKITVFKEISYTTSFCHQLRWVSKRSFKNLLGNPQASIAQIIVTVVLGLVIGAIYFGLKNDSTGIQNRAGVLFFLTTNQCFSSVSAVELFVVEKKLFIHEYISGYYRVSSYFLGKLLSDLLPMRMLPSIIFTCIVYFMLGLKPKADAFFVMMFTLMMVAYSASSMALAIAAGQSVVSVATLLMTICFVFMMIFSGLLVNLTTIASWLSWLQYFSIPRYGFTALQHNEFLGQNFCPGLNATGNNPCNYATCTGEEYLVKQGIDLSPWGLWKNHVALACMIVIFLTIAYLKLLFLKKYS
# Experiment: MDCKII-BCRP bidirectional transport assay
# Assay type: in vitro ADME
# Conditions: not given
# Procedure, shortened: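 Efflux ratios were derived from Papp values, alongside recovery, with compounds quantified by LC-MS/MS. Both directions were tested in duplicate across BCRP-MDCKII monolayers used on days 12–15. Incubation ran 120 min at 37° C, 5% CO2, after a 15 min preincubation in assay buffer.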
row,Compound,MDCK-BCRP: Efflux Ratio
1,Cc1ccc(-c2noc(C[C@@H](C)O)n2)cc1NC(=O)c1cnc2cc(C(F)F)ccn12 [Compound I-83],25.3
2,Cc1nc(-c2ccc(C)c(NC(=O)c3cnc4ccc(N)cn34)c2)no1 [Compound I-219],37

# Same assay, conditions: apical to basolateral
row,Compound,MDCK-BCRP: Papp A-B
1,Cc1ccc(-c2noc(C[C@@H](C)O)n2)cc1NC(=O)c1cnc2cc(C(F)F)ccn12 [Compound I-83],0.96 10^−6 cm/s
2,Cc1nc(-c2ccc(C)c(NC(=O)c3cnc4ccc(N)cn34)c2)no1 [Compound I-219],0.79 10^−6 cm/s

# Test system: KIT phosphorylation in M-07e cells
# Experiment: Cell-based KIT phosphorylation in M-07e cells by pKIT ELISA
# Parameters: species or system human
# Conditions: SCF stimulation
# Method: Exemplary compounds were tested for ability to inhibit KIT phosphorylation using M-07e cells as monitored by pKIT ELISA. M-07e cells are also represented as M-07E, M-07e, M07-e, M07e, Mo7e, MO7e, M07E and MO7E. Assay procedures and results are described below.
# Part I—Procedures for Determining KIT Inhibition inM-07e Cells Using pKTT ELISA Reagents and consumables: • M-07e cells: Initially obtained from Accegen, cat #ABC-TC1313 • p-cKIT Capture ELISA antibody: anti-Human Phospho-CD117/c-kit, R&D cat #DYC3527-5 • Anti-pY-HIRP antibody: R&D cat #DYC3527-5 • 25× wash buffer: Quantikine ELISA Wash Buffer 1, R&D cat #WA126 • PBS: R&D cat #DY006 • 96 well ELISA plates: Clear Polystyrene Microplates, R&D Cat #DY990 • 96 well Tissue culture plates: Corning® 96 Well TC-Treated Microplates, cat #CLS3894 • RPMI medium: ATCC® RPMI-1640 Medium, Cat #30-2001 • FBS: Fetal Bovine Serum, certified, United States Gibco, Thermo-Fisher 16000044 • GM-CSF: Recombinant Human GM-CSF Protein, R&D cat #215-GM • SCF: Recombinant Human SCF Protein, R&D cat #255-SC
# • 1. Prepare cells: • a. Culture M-07e cells in RPMI medium+20% serum+GM-CSF+penstrep • To make 50 mL of growth medium • i. 40 mL RPMI media • ii. 10 mL FBS • iii. 10 uL of GM-CSF (100 ug/mL stock) • iv. 0.5 mL pen strep (100×) • b. Harvest cells • c. Re-suspend cells in 100% RPMI media (without serum) to final concentration of 1 million cells/mL • d. Transfer 100 uL of cell solution to 11 columns of a 96 well flat bottom cell culture plate • e. Incubate cells over night at 37 C • 2. Prepare ELISA Plates: • a. Dilute capture antibody to concentration 4 ug/mL in PBS • b. Coat 96 well microplates with 100 uL of capture antibody • c. Seal plates and incubate at RT overnight • d. Wash plates with 300 uL of wash buffer • e. Repeat wash • f. Treat plates with 300 uL of blocking buffer at RT for 1 hour • 3. Addition of compounds: • a. Prepare compound dilutions in RPMI media • i. Top test concentration is 1 uM • ii. Serially dilute compounds 3× for a total of 8 concentrations • b. Add 10 uL of 10× compound dilutions to cells • i. No compounds added in column 11 (for controls) • c. Incubate cells with compounds for 2 hours at 37 C • d. Stimulate cells with SCF for 5 min at concentration of 100 ng/mL (final) • i. In column 11 stimulate top 4 wells. Leave bottom 4 wells unstimulated • e. Remove cell culture media with multichannel pipet • f. Add 110 uL of Lysis buffer to all wells • g. Incubate plates at RT for 30 min while shaking • 4. Transfer 100 uL of cell lysis to each prepared Elisa plate • 5. Add 100 uL of the standard pc-KIT dilutions to the standard wells in column 12 • a. Top concentration=2000 pg/mL • b. 2× dilutions • 6. Incubate ELISA plate with cell lysate for 2 hours at RT • 7. Wash Plate with wash buffer (wash 1) • 8. Repeat wash (wash 2) • 9. […] Add 100 uL of diluted anti-pY-HRP (1/1000 dilution in detection antibody dilution buffer) and incubate 2 hours at RT • 11. Wash plate with wash buffer (wash 1) • 12. Repeat wash (wash 2) • 13. Repeat wash (wash 3) • 14. Add 100 uL of substrate solution to each well • 15. Incubate plates 20 min • Note: Plate development is indicated by aqua color • 16. Add 50 uL of stop solution to each well • 17. Determine optical density on Bitek Synergy Neo2: • a. Make new experiment
# Select absorbance 1 set to 450 nm
row,Compound,IC50
1,Cc1ccc(-c2noc(C[C@H](C)O)n2)cc1NC(=O)c1cnc2cc(C(F)F)ccn12 [Compound I-82],50 to 500 nM
2,Cc1ccc(-c2noc(C[C@@H](C)O)n2)cc1NC(=O)c1cnc2cc(C(F)F)ccn12 [Compound I-83],≤ 50 nM
3,COCc1ccn2c(C(=O)Nc3cc(-c4noc(C5CN(C(=O)OC)C5)n4)ccc3C)cnc2c1 [Compound I-140],50 to 500 nM
4,Cc1ccc(-c2noc([C@@H]3CCN3S(=O)(=O)c3cn(C)cn3)n2)cc1NC(=O)c1cnc2ccccn12 [Compound I-184],500 to 5000 nM
5,Cc1ccc(-c2noc([C@@H]3CCN3S(=O)(=O)c3cccnc3)n2)cc1NC(=O)c1cnc2ccccn12 [Compound I-185],≤ 50 nM
6,COC(=O)N1CC(c2nc(-c3ccc(C#N)c(NC(=O)c4cnc5ccccn45)c3)no2)C1 [Compound I-212],50 to 500 nM
7,Cc1ccc(-c2noc(N3CCC(F)(F)CC3)n2)cc1NC(=O)c1cnc2ccccn12 [Compound I-214],50 to 500 nM

# Target: T2, PDGFRα (Homo sapiens, UniProt P16234)
# T2 construct: purchased Millipore 14-467 (lot 26321_ACTI)
# T2 sequence (P16234 24-1089): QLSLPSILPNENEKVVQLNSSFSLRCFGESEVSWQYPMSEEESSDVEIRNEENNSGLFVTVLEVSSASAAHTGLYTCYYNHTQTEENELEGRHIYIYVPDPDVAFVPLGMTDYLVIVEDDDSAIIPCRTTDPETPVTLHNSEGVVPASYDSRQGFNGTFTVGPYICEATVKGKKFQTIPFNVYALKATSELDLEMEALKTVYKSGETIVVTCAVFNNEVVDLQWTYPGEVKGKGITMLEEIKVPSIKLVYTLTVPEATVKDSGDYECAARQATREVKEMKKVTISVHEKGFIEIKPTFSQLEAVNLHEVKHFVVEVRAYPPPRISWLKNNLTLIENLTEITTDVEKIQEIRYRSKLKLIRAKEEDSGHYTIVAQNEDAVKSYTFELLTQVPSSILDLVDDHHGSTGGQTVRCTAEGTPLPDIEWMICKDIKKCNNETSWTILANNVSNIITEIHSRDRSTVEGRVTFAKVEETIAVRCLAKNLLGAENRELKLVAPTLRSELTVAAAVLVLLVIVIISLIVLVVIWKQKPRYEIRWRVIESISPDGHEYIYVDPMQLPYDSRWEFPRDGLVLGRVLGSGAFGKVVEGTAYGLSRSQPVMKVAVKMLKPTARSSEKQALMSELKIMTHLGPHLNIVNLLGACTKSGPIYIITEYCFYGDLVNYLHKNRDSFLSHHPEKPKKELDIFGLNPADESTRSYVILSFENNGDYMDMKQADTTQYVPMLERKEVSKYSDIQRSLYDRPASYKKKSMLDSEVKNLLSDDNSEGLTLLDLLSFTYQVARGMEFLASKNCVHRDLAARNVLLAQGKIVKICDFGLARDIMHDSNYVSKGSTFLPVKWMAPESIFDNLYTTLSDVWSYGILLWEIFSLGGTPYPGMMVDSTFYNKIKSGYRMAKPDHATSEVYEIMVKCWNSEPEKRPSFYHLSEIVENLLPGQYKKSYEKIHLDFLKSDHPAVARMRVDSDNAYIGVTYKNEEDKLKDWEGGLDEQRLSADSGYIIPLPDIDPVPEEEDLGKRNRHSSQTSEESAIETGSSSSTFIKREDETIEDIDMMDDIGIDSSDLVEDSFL
# Experiment: Caliper biochemical assay, PDGFRα
# Conditions: Table 6
# Procedure, shortened: (§1)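 Mobility-shift readout: after EDTA quench, fluorescent peptide and product are resolved electrophoretically on a LabChip and measured by fluorescence. Reactions contain enzyme, carboxyfluorescein peptide, ATP, Mn^2+ and compound, run 3 h at 25° C; 100% inhibition control lacks enzyme.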
row,Compound,IC50
1,COCc1ccn2c(C(=O)Nc3cc(-c4noc(C5CN(C(=O)OC)C5)n4)ccc3C)cnc2c1 [Compound I-140],5000 to 30000 nM
2,Cc1ccc(-c2noc([C@@H]3CCN3S(=O)(=O)c3cn(C)cn3)n2)cc1NC(=O)c1cnc2ccccn12 [Compound I-184],500 to 5000 nM
3,Cc1ccc(-c2noc([C@@H]3CCN3S(=O)(=O)c3cccnc3)n2)cc1NC(=O)c1cnc2ccccn12 [Compound I-185],50 to 500 nM
4,Cc1nc(-c2ccc(C)c(NC(=O)c3cnc4ccc(N)cn34)c2)no1 [Compound I-219],500 to 5000 nM

# Target: T3, wtKIT (Homo sapiens, UniProt P10721)
# T3 construct: 1888289AM in the reaction mixtures
# T3 sequence (P10721 26-976): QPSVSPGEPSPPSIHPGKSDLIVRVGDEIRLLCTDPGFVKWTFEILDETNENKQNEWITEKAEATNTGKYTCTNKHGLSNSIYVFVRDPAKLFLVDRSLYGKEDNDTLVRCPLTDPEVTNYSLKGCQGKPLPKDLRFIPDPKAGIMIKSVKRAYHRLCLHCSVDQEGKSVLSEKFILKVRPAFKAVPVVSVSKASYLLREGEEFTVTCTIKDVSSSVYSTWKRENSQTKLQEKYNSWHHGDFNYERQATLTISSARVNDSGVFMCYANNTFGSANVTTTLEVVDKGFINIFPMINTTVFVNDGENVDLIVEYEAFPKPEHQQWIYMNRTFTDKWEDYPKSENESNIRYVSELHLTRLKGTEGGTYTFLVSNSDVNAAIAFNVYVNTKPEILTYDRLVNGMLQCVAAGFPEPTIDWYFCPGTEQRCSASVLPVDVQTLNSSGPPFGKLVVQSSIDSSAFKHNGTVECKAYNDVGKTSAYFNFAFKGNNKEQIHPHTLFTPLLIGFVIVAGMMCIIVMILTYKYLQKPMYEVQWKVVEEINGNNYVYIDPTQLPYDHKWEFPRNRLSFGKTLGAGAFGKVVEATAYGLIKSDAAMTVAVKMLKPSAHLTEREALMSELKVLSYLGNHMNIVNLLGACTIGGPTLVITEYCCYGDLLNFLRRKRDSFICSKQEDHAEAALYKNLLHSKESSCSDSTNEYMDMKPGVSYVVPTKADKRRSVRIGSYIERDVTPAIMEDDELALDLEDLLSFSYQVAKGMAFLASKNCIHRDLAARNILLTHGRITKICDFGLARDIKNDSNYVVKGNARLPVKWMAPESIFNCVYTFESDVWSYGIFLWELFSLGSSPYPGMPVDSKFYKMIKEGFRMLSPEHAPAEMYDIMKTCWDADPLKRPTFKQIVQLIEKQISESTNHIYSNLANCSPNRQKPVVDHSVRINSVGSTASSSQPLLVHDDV
# Experiment: HTRF biochemical assay, wtKIT (phosphorylation of a peptide substrate)
# Conditions: Table 4
# Procedure, shortened: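 HTRF read-out of FAM-peptide (1 µM) phosphorylation after anti-phosphotyrosine antibody addition and EDTA quench. Reaction: 5.0 nM wtKIT, 400 µM ATP, 10 mM Mn2+, HEPES pH 7.5, 1% DMSO, 3 h, 25 °C; optional enzyme-compound preincubation; enzyme level set for 10-20% conversion.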
row,Compound,IC50
1,COC(=O)N1CC(c2nc(-c3ccc(C#N)c(NC(=O)c4cnc5ccccn45)c3)no2)C1 [Compound I-212],50 to 500 nM
2,Cc1ccc(-c2noc(N3CCC(F)(F)CC3)n2)cc1NC(=O)c1cnc2ccccn12 [Compound I-214],50 to 500 nM
3,Cc1nc(-c2ccc(C)c(NC(=O)c3cnc4ccc(N)cn34)c2)no1 [Compound I-219],≤ 50 nM

# Target: T4, CSF-1R (Homo sapiens, UniProt P07333)
# T4 construct: purchased Invitrogen PV3249 (lot 662393N)
# T4 sequence (P07333 20-972): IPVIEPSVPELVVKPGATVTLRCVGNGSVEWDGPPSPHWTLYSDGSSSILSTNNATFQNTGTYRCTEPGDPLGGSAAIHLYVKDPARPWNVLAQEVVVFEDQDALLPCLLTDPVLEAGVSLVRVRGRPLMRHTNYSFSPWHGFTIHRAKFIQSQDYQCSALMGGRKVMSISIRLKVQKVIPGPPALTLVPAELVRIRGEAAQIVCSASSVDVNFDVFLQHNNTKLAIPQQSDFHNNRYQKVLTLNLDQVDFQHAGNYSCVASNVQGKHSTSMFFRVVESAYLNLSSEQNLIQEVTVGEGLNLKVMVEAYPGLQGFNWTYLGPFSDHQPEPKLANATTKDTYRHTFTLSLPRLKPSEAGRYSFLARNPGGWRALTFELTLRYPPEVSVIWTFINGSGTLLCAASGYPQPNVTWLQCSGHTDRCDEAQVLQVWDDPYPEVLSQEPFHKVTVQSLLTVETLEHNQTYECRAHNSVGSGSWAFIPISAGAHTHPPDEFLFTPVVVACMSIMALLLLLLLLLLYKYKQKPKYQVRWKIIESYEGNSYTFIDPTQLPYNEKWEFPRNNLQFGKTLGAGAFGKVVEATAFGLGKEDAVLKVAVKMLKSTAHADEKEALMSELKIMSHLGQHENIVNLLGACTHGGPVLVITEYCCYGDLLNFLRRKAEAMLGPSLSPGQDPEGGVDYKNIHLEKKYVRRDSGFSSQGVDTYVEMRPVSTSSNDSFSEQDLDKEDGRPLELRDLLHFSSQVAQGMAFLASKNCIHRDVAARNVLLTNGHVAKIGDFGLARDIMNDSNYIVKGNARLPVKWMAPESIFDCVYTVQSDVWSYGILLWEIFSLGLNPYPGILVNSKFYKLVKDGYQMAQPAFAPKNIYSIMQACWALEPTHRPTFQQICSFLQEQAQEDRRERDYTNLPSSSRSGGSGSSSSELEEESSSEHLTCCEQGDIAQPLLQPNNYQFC
# Experiment: Caliper biochemical assay, CSF-1R
# Conditions: Table 6
# Procedure, shortened: as §1
row,Compound,IC50
1,COCc1ccn2c(C(=O)Nc3cc(-c4noc(C5CN(C(=O)OC)C5)n4)ccc3C)cnc2c1 [Compound I-140],50 to 500 nM
2,Cc1ccc(-c2noc([C@@H]3CCN3S(=O)(=O)c3cn(C)cn3)n2)cc1NC(=O)c1cnc2ccccn12 [Compound I-184],50 to 500 nM
3,Cc1ccc(-c2noc([C@@H]3CCN3S(=O)(=O)c3cccnc3)n2)cc1NC(=O)c1cnc2ccccn12 [Compound I-185],≤ 50 nM
4,Cc1nc(-c2ccc(C)c(NC(=O)c3cnc4ccc(N)cn34)c2)no1 [Compound I-219],50 to 500 nM

# Target: T3, wtKIT
# Experiment: Caliper biochemical assay, wtKIT
# Conditions: Table 6, read-out: KIT Biochemical IC50 avg
# Procedure, shortened: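 Mobility-shift read-out: after EDTA stop, fluorescent peptide substrate and product resolved electrophoretically on LabChip 3000. Reaction ran 3 h at 25° C with 400 μM ATP, Mn^2+ cofactor, 5.0 nM wtKIT, 1 μM FAM-peptide, pH 7.5 HEPES buffer; no-enzyme wells defined full inhibition.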
row,Compound,IC50
1,COCc1ccn2c(C(=O)Nc3cc(-c4noc(C5CN(C(=O)OC)C5)n4)ccc3C)cnc2c1 [Compound I-140],≤ 50 nM
2,Cc1ccc(-c2noc([C@@H]3CCN3S(=O)(=O)c3cn(C)cn3)n2)cc1NC(=O)c1cnc2ccccn12 [Compound I-184],≤ 50 nM
3,Cc1ccc(-c2noc([C@@H]3CCN3S(=O)(=O)c3cccnc3)n2)cc1NC(=O)c1cnc2ccccn12 [Compound I-185],≤ 50 nM
4,COC(=O)N1CC(c2nc(-c3ccc(C#N)c(NC(=O)c4cnc5ccccn45)c3)no2)C1 [Compound I-212],50 to 500 nM
5,Cc1ccc(-c2noc(N3CCC(F)(F)CC3)n2)cc1NC(=O)c1cnc2ccccn12 [Compound I-214],≤ 50 nM
6,Cc1nc(-c2ccc(C)c(NC(=O)c3cnc4ccc(N)cn34)c2)no1 [Compound I-219],≤ 50 nM
